The subject of the test is Neospora caninum. The experiment in a line: Proliferation assay of Neospora caninum in HFF cells, tritiated uracil incorporation. Type of test: cell-based. As to conditions: positive control, read-out: ICSO. How it is done: In order to solubilize the essential oils, the oils were diluted in dimethyl sulfoxide (DMSO) and then spread in the cell culture medium (DMEM) that was supplemented with 10% fetal calf serum (D10). DMSO was also used at a final concentration not exceeding 0.1%. Separate cultures of both parasites, Toxoplasma gondii and Neospora caninum, were prepared in vitro in human cell type HFF (Human Foreskin Fibroblasts), grown at 37° C. under 5% CO2 in a D10 medium. Both cultures were similar, the inoculum used for the various tests were the same, […] per well. It was observed that growing Neospora caninum is slower than that of Toxoplasma gondii.
Proliferation of the parasite in the cells is measured by counting the specific radioactivity of the incorporated tritiated uracil and compared to the control without essential oil (100% proliferation). The test is performed in 24-well plates and the whole test lasts about 24 hours. The positive control is achieved using pyrimethamine (ICSO: 0.1 μg/mL).
Values represent inhibition of proliferation.
The inhibition of proliferation was measured by incorporating tritiated uracil in both Toxoplasma gondii and Neospora caninum and the viability of HFF cells was assessed using MTT assay.

Each structure is given as a SMILES string. In brackets after ≈: the same amount, converted by molar mass.

Take `CCc1nc(N)nc(N)c1-c1ccc(Cl)cc1` [pyrimethamine]: the IC50 worked out at 0.1 µg/mL (≈ 0.402 µM).

These data come from patent publication US11497785B2, “Oral anti-parasitic composition” (Mars, Incorporated, priority 2013, dated 2022).
